Assay results taken from US11512280B2, “Method for culturing spore-forming bacteria, and method for producing useful substance” (priority 2016, dated 2022).

How the values were obtained:
Assay type in all cases: cell-based
[1] = test system: Bacillus subtilis MBI-600 strain; assay: Culture of Bacillus subtilis in Table 5 medium with sporulation-inhibiting substance, 50 hours, cell and spore counts (Example 4); details: for Bacterial cell concentration: carbon content 18.2 g/L
Procedure: Using a 500 ml Erlenmeyer flask (with baffles), each 100 ml of media listed in Table 5 was prepared and then autoclave sterilization was carried out. Note that glucose was separately sterilized and aseptically mixed in order to avoid Maillard reaction. According to the conditions of each test section, the filter-sterilized aqueous solution of each sporulation-inhibiting substance was added aseptically to each medium. According to the conditions of each test section, one loopful of Bacillus subtilis MBI-600 strain was taken from a colony grown on a nutrient agar medium, inoculated, and then cultured with shaking at 30° C. and 150 rpm. Fifty (50) hours after the start of culture, culture was stopped.

[2] = test system: Bacillus thuringiensis NBRC 101235 strain; assay: Culture of Bacillus thuringiensis with sporulation-inhibiting substance, 40 hours (Example 3); details: for Bacterial cell concentration / Spore concentration / Sporulation rate: 40 hours culture
Procedure: (§1) Using a 500 ml Erlenmeyer flask (with baffles), each 100 ml of media listed in Table 1 was prepared and then autoclave sterilization was carried out. Note that glucose was separately sterilized and aseptically mixed in order to avoid Maillard reaction.
(§2) According to the conditions of each test section, the filter-sterilized aqueous solution of each sporulation-inhibiting substance was added aseptically to each medium. According to the conditions of each test section, one loopful of Bacillus thuringiensis NBRC 101235 strain was taken from a colony grown on a nutrient agar medium, inoculated, and then cultured with shaking at 30° C. and 150 rpm for 40 hours.
(§3) Each of the thus obtained culture liquid was diluted 10-fold with sterile water, and then the bacterial cell concentration (vegetative cells and spores) and the sporulation rate (spore concentration/bacterial cell concentration) were measured using an optical microscope and a bacterial cell counter.

[3] = test system: Bacillus subtilis MBI-600; assay: Culture of Bacillus subtilis with sporulation-inhibiting substance, 64 hours (Example 1); details: for Spore concentration / Sporulation rate / Bacterial cell concentration: 64 hours culture; for bacterial cell concentrations as the concentration of the substance increased: trend over tested concentrations
Procedure: Using a 500 ml Erlenmeyer flask (with baffles), each 100 ml of media listed in Table 1 was prepared and then autoclave sterilization was carried out. Glucose was separately sterilized and aseptically mixed in order to avoid Maillard reaction.
as §2, with “One” for “According to the conditions of each test section, one”, “subtilis MBI-600” for “thuringiensis NBRC 101235 strain”, “64” for “40”
as §3

[4] = test system: Bacillus subtilis MBI-600 strain; assay: Surfactin production by Bacillus subtilis, HPLC of culture supernatant (Example 4)
Procedure: Using a 500 ml Erlenmeyer flask (with baffles), each 100 ml of media listed in Table 5 was prepared and then autoclave sterilization was carried out. Note that glucose was separately sterilized and aseptically mixed in order to avoid Maillard reaction.
as §2, with “subtilis MBI-600” for “thuringiensis NBRC 101235”, “rpm.” for “rpm for 40 hours.”
Fifty (50) hours after the start of culture, culture was stopped.
Each of the obtained cultured liquid was centrifuged using a refrigerated centrifuge (TOMY SEIKO Co., Ltd. MX-307) at 10,000 rpm and 20° C. for 30 minutes, thereby collecting a supernatant.
To a solid-phase extraction column (Nihon Waters K.K. Oasis HLB 3 cc (400 mg) LP Extraction Cartridge), 3 ml of 0.1% TFA-containing acetonitrile was added and allowed to pass therethrough, and then 3 ml of 0.1% TFA-containing distilled water was added to pass through the column. Two ml of the thus collected centrifugal supernatant of each culture medium was added to pass through the column, 6 ml of 0.1% TFA-containing distilled water, and then 3 ml of 0.1% TFA-containing acetonitrile/distilled water (20:80, v/v) were allowed to pass through the column in sequence for washing. Next, 3 ml of 0.1% TFA-containing acetonitrile/distilled water (90:10, v/v) was allowed to pass through the column, thereby collecting an eluate. 0.1% TFA-containing acetonitrile/distilled water (90:10, v/v) was added, so that the amount of the collected solution was 4 ml, and then HPLC analysis was conducted under the following conditions.
HPLC: Agilent Technologies, Inc. 1260 Infinity […]
Each medium was compared with the authentic sample in terms of peak area detected at the elution time of 27.6 minutes and that of 28.4 minutes, thereby calculating the surfactin concentration in the culture medium.

[5] = test system: Bacillus subtilis MBI-600; assay: Culture of Bacillus subtilis with sporulation-inhibiting and sporulation-accelerating substances, 45 hours (Example 2); details: for Bacterial cell concentration / Spore concentration / Sporulation rate: 45 hours
Procedure: as §1
Test sections were set as described in Table 3. According to the conditions of each test section, the filter-sterilized aqueous solution of each sporulation-inhibiting substance was added aseptically to each medium. According to the conditions of each test section, one loopful of Bacillus subtilis MBI-600 was taken from a colony grown on a nutrient agar medium, inoculated, and then cultured with shaking at 30° C. and 150 rpm.
Sixteen (16) hours after the start of culture, each sporulation-accelerating substance was added according to the conditions of each test section, culture was continued. Forty-five (45) hours after the start of culture, culture was stopped.
as §3

[6] = 0.1 ppm added, carbon content 9.1 g/L
[7] = 0.3 ppm plus ammonium lactate 3,000 ppm at 16 hours
[8] = 0.3 ppm, no accelerating substance
[9] = 0.5 ppm plus ammonium acetate 2,000 ppm at 16 hours
[10] = 0.5 ppm plus ammonium acetate 3,000 ppm at 16 hours
[11] = 0.5 ppm plus ammonium acetate 4,000 ppm at 16 hours
[12] = 0.5 ppm plus ammonium lactate 3,000 ppm at 16 hours
[13] = 0.5 ppm, no accelerating substance
[14] = 1.0 ppm, no accelerating substance
[15] = 2.0 ppm, no accelerating substance

Q: With `CC[C@H]1OC(=O)[C@H](C)[C@@H](O[C@H]2C[C@@](C)(OC)[C@@H](O)[C@H](C)O2)[C@H](C)[C@@H](O[C@@H]2O[C@H](C)C[C@H](N(C)C)[C@H]2O)[C@](C)(O)C[C@@H](C)C(=O)[C@H](C)[C@@H](O)[C@]1(C)O` [Erythromycin] as the compound, how does the Spore concentration ([1]; 0.1 ppm and 0.2 ppm) read?
A: tended to increase

Q: What about the Spore concentration ([1]; 0.1 ppm, 50 hours culture) of the same compound?
A: 8e+09 mL⁻¹

Q: And the Sporulation rate ([1]; 0.1 ppm, 50 hours culture)?
A: 99%

Q: And the Bacterial cell concentration ([1]; 0.1 ppm, 50 hours culture)?
A: 8.1e+09 mL⁻¹

Q: What about the Spore concentration ([1]; 0.2 ppm, 50 hours culture) of the same compound?
A: 6.9e+09 mL⁻¹

Q: What about the Sporulation rate ([1]; 0.2 ppm, 50 hours culture) of the same compound?
A: 100%

Q: And the Bacterial cell concentration ([1]; 0.2 ppm, 50 hours culture)?
A: 6.9e+09 mL⁻¹

Q: And the “bacterial cell concentration and spore concentration” value ([2]; 0.05 ppm)?
A: tended to increase

Q: What about the Bacterial cell concentration ([2]; 0.05 ppm) of the same compound?
A: 1.5e+09 mL⁻¹

Q: What about the Spore concentration ([2]; 0.05 ppm) of the same compound?
A: 1.1e+09 mL⁻¹

Q: And the Sporulation rate ([2]; 0.05 ppm)?
A: 73%

Q: What about the “effect of inhibiting sporulation” value ([2]; 0.1 ppm) of the same compound?
A: confirmed

Q: And the Bacterial cell concentration ([2]; 0.1 ppm)?
A: 2e+09 mL⁻¹

Q: And the Spore concentration ([2]; 0.1 ppm)?
A: 3e+08 mL⁻¹

Q: What about the Sporulation rate ([2]; 0.1 ppm) of the same compound?
A: 16%

Q: And the “effect of inhibiting sporulation” value ([3]; 0.1 ppm)?
A: not observed

Q: And the Spore concentration ([3]; 0.1 ppm added)?
A: 2.8e+09 mL⁻¹

Q: What about the Sporulation rate ([3]; 0.1 ppm added) of the same compound?
A: 80%

Q: What about the Bacterial cell concentration [3, 6] of the same compound?
A: 3.5e+09 mL⁻¹

Q: What about the “effect of inhibiting sporulation” value ([3]; 1 ppm) of the same compound?
A: observed

Q: What about the Bacterial cell concentration ([3]; 1.0 ppm added) of the same compound?
A: 6.2e+09 mL⁻¹

Q: And the Sporulation rate ([3]; 1.0 ppm added)?
A: 0%

Q: And the “bacterial cell concentrations as the concentration of the substance increased” value [3]?
A: tended to increase

Q: What about the Surfactin concentration ([4]; 0.1 ppm and 0.2 ppm) of the same compound?
A: tended to increase

Q: And the Surfactin concentration ([4]; 0.1 ppm, 50 hours culture, in the culture medium)?
A: 58.5 ppm

Q: And the Surfactin concentration ([4]; 0.2 ppm, 50 hours culture, in the culture medium)?
A: 75.7 ppm

Q: How did the Bacterial cell concentration ([2]; 5.0 ppm) turn out when `CCC[C@@H]1C[C@@H](C(=O)N[C@@H]([C@H]2O[C@H](SC)[C@H](O)[C@@H](O)[C@H]2O)[C@@H](C)O)N(C)C1` [Lincomycin] was run?
A: 1.4e+09 mL⁻¹

Q: And the Spore concentration ([2]; 5.0 ppm)?
A: 1.2e+09 mL⁻¹

Q: And the Sporulation rate ([2]; 5.0 ppm)?
A: 86%

Q: And the “bacterial cell concentration and spore concentration” value ([2]; 10.0 ppm or lower)?
A: tended to increase

Q: What about the Bacterial cell concentration ([2]; 10.0 ppm) of the same compound?
A: 1.4e+09 mL⁻¹

Q: What about the Spore concentration ([2]; 10.0 ppm) of the same compound?
A: 1e+09 mL⁻¹

Q: What about the Sporulation rate ([2]; 10.0 ppm) of the same compound?
A: 71%

Q: What about the “effect of inhibiting sporulation” value ([2]; 12.5 ppm) of the same compound?
A: confirmed

Q: What about the Bacterial cell concentration ([2]; 12.5 ppm) of the same compound?
A: 9e+08 mL⁻¹

Q: What about the Spore concentration ([2]; 12.5 ppm) of the same compound?
A: 1e+08 mL⁻¹

Q: And the Sporulation rate ([2]; 12.5 ppm)?
A: 13%

Q: And the “effect of inhibiting sporulation” value ([3]; 0.1 ppm)?
A: not observed

Q: What about the Spore concentration ([3]; 0.1 ppm added) of the same compound?
A: 4.7e+09 mL⁻¹

Q: And the Sporulation rate ([3]; 0.1 ppm added)?
A: 100%

Q: What about the Bacterial cell concentration [3, 6] of the same compound?
A: 4.7e+09 mL⁻¹

Q: What about the “effect of inhibiting sporulation” value ([3]; 1 ppm) of the same compound?
A: observed

Q: What about the Bacterial cell concentration ([3]; 1.0 ppm added) of the same compound?
A: 7e+09 mL⁻¹

Q: What about the Sporulation rate ([3]; 1.0 ppm added) of the same compound?
A: 0%

Q: And the “bacterial cell concentrations as the concentration of the substance increased” value [3]?
A: tended to increase

Q: What about the “effect of inhibiting sporulation” value ([5]; 0.3 ppm) of the same compound?
A: not observed

Q: And the Bacterial cell concentration [5, 7]?
A: 5.6e+09 mL⁻¹

Q: What about the Spore concentration [5, 7] of the same compound?
A: 5.1e+09 mL⁻¹

Q: What about the Sporulation rate [5, 7] of the same compound?
A: 91%

Q: And the Bacterial cell concentration [5, 8]?
A: 3.3e+09 mL⁻¹

Q: What about the Spore concentration [5, 8] of the same compound?
A: 2.7e+09 mL⁻¹

Q: What about the Sporulation rate [5, 8] of the same compound?
A: 80%

Q: And the “effect of inhibiting sporulation” value ([5]; 0.5 ppm or more)?
A: observed

Q: And the Bacterial cell concentration [5, 9]?
A: 6.4e+09 mL⁻¹

Q: And the Spore concentration [5, 9]?
A: 4.1e+09 mL⁻¹

Q: And the Sporulation rate [5, 9]?
A: 64%

Q: And the Bacterial cell concentration [5, 10]?
A: 7.6e+09 mL⁻¹

Q: What about the Spore concentration [5, 10] of the same compound?
A: 5.4e+09 mL⁻¹

Q: And the Sporulation rate [5, 10]?
A: 71%

Q: And the Bacterial cell concentration [5, 11]?
A: 8.4e+09 mL⁻¹

Q: And the Spore concentration [5, 11]?
A: 6.1e+09 mL⁻¹

Q: What about the Sporulation rate [5, 11] of the same compound?
A: 72%

Q: And the Bacterial cell concentration [5, 12]?
A: 7.2e+09 mL⁻¹

Q: What about the Spore concentration [5, 12] of the same compound?
A: 5.7e+09 mL⁻¹

Q: And the Sporulation rate [5, 12]?
A: 79%

Q: And the Bacterial cell concentration [5, 13]?
A: 4.4e+09 mL⁻¹

Q: What about the Sporulation rate [5, 13] of the same compound?
A: 0%

Q: What about the Bacterial cell concentration [5, 14] of the same compound?
A: 5.1e+09 mL⁻¹

Q: What about the Sporulation rate [5, 14] of the same compound?
A: 0%

Q: What about the Bacterial cell concentration [5, 15] of the same compound?
A: 5.9e+09 mL⁻¹

Q: What about the Sporulation rate [5, 15] of the same compound?
A: 0%

Q: What about the “bacterial cell concentrations as the concentration of the substance increased” value ([5]; trend over tested concentrations) of the same compound?
A: tended to increase
